The subject of one assay is Raji. Briefly: Cytotoxicity against human Raji cells after 72 hrs by alamar blue assay. The class given is ADME, cell-based. A general note: Resazurin is reduced to fluorescent resorufin, in cell work by metabolically active cells.
Another assay relates to BJ. Nature of the assay: Cytotoxicity against human BJ cells after 72 hrs by alamar blue assay. It counts as ADME, cell-based.
The subject of the next assay is HepG2. Nature of the assay: Cytotoxicity against human HepG2 cells after 72 hrs by alamar blue assay. It counts as ADME, cell-based. The following applies: HepG2, 72 h.
A short description of assay [1]: Inhibition of Trypanosoma brucei cathepsin B expressed in Pichia pastoris.
In a further assay the test system is Trypanosoma brucei. Nature of the assay: Antitrypanosomal activity against Trypanosoma brucei after 48 hrs. It counts as functional, organism-based.
Another assay deals with Rhodesain (Trypanosoma brucei rhodesiense, UniProt Q95PM0). Briefly: Inhibition of Trypanosoma brucei rhodesiense rhodesain.
For a further assay, the system named is HEK293. Nature of the assay: Cytotoxicity against human HEK293 cells after 72 hrs by alamar blue assay. It counts as ADME, cell-based. Conditions: HEK293, 72 h.
A further assay concerns the target Cathepsin B (Homo sapiens, UniProt P07858). Nature of the assay: Inhibition of human liver cathepsin B.
The next assay concerns the target Procathepsin L (Homo sapiens, UniProt P07711). Briefly: Inhibition of human liver cathepsin L.

Each structure is given as a SMILES string.

Chain of Rhodesain (Q95PM0 whole entry): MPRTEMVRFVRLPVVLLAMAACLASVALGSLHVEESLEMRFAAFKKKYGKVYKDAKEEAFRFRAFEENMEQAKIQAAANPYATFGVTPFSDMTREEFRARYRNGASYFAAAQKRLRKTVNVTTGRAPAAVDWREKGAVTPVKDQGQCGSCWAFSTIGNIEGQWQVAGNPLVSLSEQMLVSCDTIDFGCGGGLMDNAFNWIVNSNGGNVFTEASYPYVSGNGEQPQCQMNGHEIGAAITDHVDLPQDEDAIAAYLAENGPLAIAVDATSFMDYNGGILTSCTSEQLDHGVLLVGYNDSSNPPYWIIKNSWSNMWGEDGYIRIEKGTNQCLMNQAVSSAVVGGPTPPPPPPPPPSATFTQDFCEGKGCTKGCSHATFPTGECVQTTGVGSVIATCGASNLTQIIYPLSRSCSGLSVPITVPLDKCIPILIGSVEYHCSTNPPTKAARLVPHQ
Chain of Procathepsin L (P07711 whole entry): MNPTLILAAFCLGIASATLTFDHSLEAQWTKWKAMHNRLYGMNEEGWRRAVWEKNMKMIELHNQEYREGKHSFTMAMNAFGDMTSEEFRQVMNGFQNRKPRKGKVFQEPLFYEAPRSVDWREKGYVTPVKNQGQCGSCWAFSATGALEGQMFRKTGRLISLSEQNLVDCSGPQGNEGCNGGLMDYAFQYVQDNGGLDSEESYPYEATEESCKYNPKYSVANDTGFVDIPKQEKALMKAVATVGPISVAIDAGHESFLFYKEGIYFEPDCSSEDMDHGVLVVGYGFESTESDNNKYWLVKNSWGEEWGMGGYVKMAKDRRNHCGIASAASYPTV

A word on the EC50: it is the concentration at which the effect is half-maximal. Lower therefore signals higher potency in that assay. As usually defined, the IC50 is the concentration at which inhibition is half-maximal. Regarding `N#Cc1nc(NCc2cccc(-c3cn(S(=O)(=O)c4ccccc4)c4ccccc34)c2)c2ncn(CCCO)c2n1`, the concentration for a half-maximal effect (EC50) in the assay on Raji is above 10 µM; in the assay on BJ, above 10 µM; in the assay on HepG2 it was above 10 µM; in the assay with Trypanosoma brucei, 2 µM; in the assay on HEK293, above 10 µM. Further, the IC50 in [1] is above 15 µM; against Rhodesain it was 2 µM; on Cathepsin B, above 50 µM; at Procathepsin L it was 1 µM.

(Values after ChEMBL document CHEMBL1155239, “Structure-guided development of selective TbcatB inhibitors” (J Med Chem, 2009).)
